Patent publication US20140018242A1, “METHOD OF CROP ENHANCEMENT” (SYNGENTA PARTICIPATIONS AG, priority 2010, published 2014)

Experiments:
Assay type in all cases: in vivo
Soybeans (Glycine max) [1] = assay: Foliar application to soybeans, effects on yield (number and size of pods, root parameters); conditions: 68 g AI/ha foliar, 29DAA
Experimental: Three week old soybean plants (5 replicates) were sprayed with respective test solutions. Test solutions contained the formulated test compound and the adjuvant Mero (0.1% v/v). Plants were kept under glasshouse conditions at 22° C. with a photo-period of 14 h. 29d after application the individual number and size of pods per plant were measured. Additionally, the overall root system of individual plants was scanned and analysed by the image analysis software ‘WinRhizo’ (Regent Instruments Inc., 2009). […] The average number of taller pods (related to number of seeds) was increased.

Soybeans (Glycine max) [2] = assay: Soil application (drench) to soybeans in rhizoboxes, effects on root system and shoot; conditions: 30DAA; for Stem thickness (mm) below respective leaf, Mean / leaf area (cm^2), Mean: 0.12 mg AI per plant drench
Experimental: Three two-week old soybean plants were transplanted to ‘rhizoboxes’ (ca. 12 L soil volume). One day later 0.12 mg Al of compound T1.070, wherein G is CO2Et, were applied (drench) to each plant. Plants were kept under glasshouse conditions at 22° C. with a photo-period of 14 h. 30 DAA the entire root system per rhizobox was scanned and analysed by the image analysis software ‘WinRhizo’ (Regent Instruments Inc., 2009).

Soybeans (Glycine max) [3] = assay: Foliar application to soybeans, effects on water consumption, plant height, chlorophyll content; conditions: soybean, 26 days after spray; for water consumption: foliar spray 100 ga/ha (EC050) 21 days after sowing, no watering after spray; for plant height / chlorophyll content: foliar spray 100 ga/ha (EC050); for chlorophyll content: third trifoliate-leaf
Experimental: Soybean plants were grown in a climate chamber at 22° C. during 14 h daytime and 20° C. during 10 h night at 70% rel.humidity. Plants were sprayed 21 days after sowing with a 100 ga/ha of the test compound, formulated as a standard EC050. Water status was adjusted befor spray for all pots, and plants not watered anymore after spray. After growing further 26 days in the controlled environment, the plant height, chlorophyll content of the third trifoliate-leaf, and water consumption was determined.

Spring-wheat = assay: Foliar application to spring-wheat, effects on water consumption, plant height; conditions: 26 days after spray; for water consumption: foliar spray 50 ga/ha (EC050) 21 days after sowing, no watering after spray; for plant height: foliar spray 50 ga/ha (EC050)
Experimental: Wheat plants were grown in a climate chamber at 18° C., 14 h daytime and 10 h night, at 70% rel.humidity. Plants were sprayed 21 days after sowing with a 50 ga/ha of the test compound, formulated as a standard EC050. Water status was adjusted before spray for all pots and plants not watered anymore after spray. After growing further 26 days in the controlled environment the plant height, and water consumption was determined.

Barley (Hordeum vulqare) = assay: Foliar application to barley, plant growth effects (plant height, tillers); conditions: 12.5 ppm foliar, 9DAA; for av. tillers per plant: check 0
Experimental: Five replicates (pots with three 10d old barley plants each) were sprayed with respective test solutions. Test solutions contained the formulated test compound and the adjuvant Mero (0.1% v/v). Plants were kept under glasshouse conditions at 22° C. with a photo period of 14 h. 9d after application the average plant height per replicate was measured and the number of tillers per replicate was counted. […] Additionally, the number of tillers were increased.

[4] = soybean, drench 0.12 mg AI per plant
[5] = soybean, drench 0.12 mg AI per plant, entire root system per rhizobox, WinRhizo

CCOC(=O)OC1=C(c2c(C)cc(C)cc2C)C(=O)N(C)C12CCN(OC)CC2 [T1.070, wherein G is CO2Et]
No. of root tips, Mean (in %) relative to check (Soybeans (Glycine max) [1]; WinRhizo): 43.7%
Root length, Mean (in %) relative to check (Soybeans (Glycine max) [1]; WinRhizo): 32.0%
Mean no. of pods per plant, only pods >20 mm (Soybeans (Glycine max) [1]; check 1.8): 3.2
Mean no. of pods per plant, all pods considered (Soybeans (Glycine max) [1]; check 5.4): 5.8
pod length - sum per trmt (mm), only pods >20 mm (Soybeans (Glycine max) [1]; check 276): 516 mm
pod length - sum per trmt (mm), all pods considered (Soybeans (Glycine max) [1]; check 452): 674 mm
Stem thickness (mm) below respective leaf, Mean (Soybeans (Glycine max) [2]; 1st trifoliate leaf, untreated 2.04): 2.39 mm
leaf area (cm^2), Mean (Soybeans (Glycine max) [2]; 1st trifoliate leaf, untreated 42.95): 60.59 cm^2
Stem thickness (mm) below respective leaf, Mean (Soybeans (Glycine max) [2]; 1st true leaves, untreated 2.31): 2.87 mm
leaf area (cm^2), Mean (Soybeans (Glycine max) [2]; 1st true leaves, untreated 28.54): 39.82 cm^2
Stem thickness (mm) below respective leaf, Mean (Soybeans (Glycine max) [2]; 2nd trifoliate leaf, untreated 1.87): 2.09 mm
leaf area (cm^2), Mean (Soybeans (Glycine max) [2]; 2nd trifoliate leaf, untreated 58.76): 72.44 cm^2
Stem thickness (mm) below respective leaf, Mean (Soybeans (Glycine max) [2]; 3rd trifoliate leaf, untreated 1.60): 1.86 mm
leaf area (cm^2), Mean (Soybeans (Glycine max) [2]; 3rd trifoliate leaf, untreated 58.01): 77.72 cm^2
Stem thickness (mm) below respective leaf, Mean (Soybeans (Glycine max) [2]; 4th trifoliate leaf, untreated 1.11): 1.32 mm
leaf area (cm^2), Mean (Soybeans (Glycine max) [2]; 4th trifoliate leaf, untreated 18.09): 27.48 cm^2
Shoot growth (plant growth) (Soybeans (Glycine max) [2]; [4]): Enhanced plant growth was also observed by fortified shoot growth.
Visual impression of root system (Soybeans (Glycine max) [2]; [4]): clearly enhanced root system
Root parameters relative to check: Length (cm), rel. to check (0%) (Soybeans (Glycine max) [2]; [5]): 41.3%
Root parameters relative to check: RootVolume (cm3), rel. to check (0%) (Soybeans (Glycine max) [2]; [5]): 52.2%
Root parameters relative to check: SurfaceArea (cm2), rel. to check (0%) (Soybeans (Glycine max) [2]; [5]): 46.6%
Root parameters relative to check: Tips, rel. to check (0%) (Soybeans (Glycine max) [2]; [5]): 63.1%
water consumption (Soybeans (Glycine max) [3]): 393 ml/26 days
plant height (Soybeans (Glycine max) [3]): 17.3 cm
chlorophyll content (Soybeans (Glycine max) [3]): 39.9 reflectance
water consumption (Spring-wheat): 208 ml/26 days
plant height (Spring-wheat): 27.4 cm

CCOC(=O)OC1=C(c2c(C)cc(Br)cc2C)C(=O)NC12CCN(OC)CC2 [T1iii.66, wherein G is CO2Et]
av. plant height (cm) (Barley (Hordeum vulqare)): 27.2 cm
av. tillers per plant (Barley (Hordeum vulqare)): 4.2

CCOC(=O)OC1=C(c2c(C)cc(Cl)cc2C)C(=O)NC12CCN(OC)CC2 [T1iii.67, wherein G is CO2Et]
av. plant height (cm) (Barley (Hordeum vulqare)): 24.4 cm
av. tillers per plant (Barley (Hordeum vulqare)): 3.8
water consumption (Soybeans (Glycine max) [3]): 379 ml/26 days
plant height (Soybeans (Glycine max) [3]): 16.5 cm
chlorophyll content (Soybeans (Glycine max) [3]): 44.6 reflectance
water consumption (Spring-wheat): 218 ml/26 days
plant height (Spring-wheat): 27.9 cm
